Reference: patent publication US7482489B2, “Enantiomerically pure (R)-albuterol dibenzoyltartrate and protected analogs thereof” (Teva Pharmaceutical Fine Chemicals S.r.l., priority 2004, dated 2009)
Where a name gives a salt, the structure may show the parent alone. One block for each compound: values may come before it.

How the values were obtained:
Assay type in all cases: physicochemical
[1] = Stability comparison of sample at 40° C. and 75% RH (HPLC area %)
Experimental: Yields were determined by mass. Chemical purity was determined by HPLC. The HPLC analysis was conducted using a column POLARIS C18-A 250 mm×4.6 mm×[…] (cat n.2002-250×046) and a mobile phase. The mobile phase comprised a phosphate buffer at pH 3.00 and acetonitrile in a gradient. The eluent flow was 1.0 ml/min. The detector was set to a wavelength of 230 nm, using an HPLC Hewlett Packard VWD detector HP 1100, as a detector.
Using the products of the previous examples, a stability study at 40° C. and 75% RH was carried out.

[2] = Stability of levalbuterol hydrochloride at different storage temperatures (HPLC area %)
Experimental: At lower pH values, greater levalbuterol hydrochloride degradation occurred. […] [table] […] The percentage LVB, Compound B, or Compound A is relative to the total amount of sample at time=T. Yields were determined by mass. Chemical purity was determined by HPLC. […] The mobile phase comprised a phosphate buffer at pH 3.00 and acetonitrile in a gradient. The eluent flow was 1.0 ml/min. The detector was set to a wavelength of 230 nm, using an HPLC Hewlett Packard VWD detector HP 1100, as a detector.

[3] = Stability of levalbuterol hydrochloride at 70° C. (HPLC area %, appearance)
Experimental: [table] […] At lower pH values, greater levalbuterol hydrochloride degradation occurred. […] Yields were determined by mass. Chemical purity was determined by HPLC. […] The mobile phase comprised a phosphate buffer at pH 3.00 and acetonitrile in a gradient. The eluent flow was 1.0 ml/min. The detector was set to a wavelength of 230 nm, using an HPLC Hewlett Packard VWD detector HP 1100, as a detector.

[4] = 3 months at 40° C. and 75% RH, Hydrochloride
[5] = 6 months at 40° C. and 75% RH, Hydrochloride
[6] = T = 0, 40° C. and 75% RH study, Hydrochloride
[7] = T = 0, before storage at 70° C., Hydrochloride
[8] = 1 week at 70° C., Hydrochloride

Comp. A [1, 4]: 0.02%
Comp. B [1, 4]: 0.06%
LVB [1, 4]: 99.85%
Total Unknown Impurities [1, 4]: 0.07%
Total Unknown Impurities ([1]; 6 months at 40° C. and 75% RH): 0.09%
Comp. A [1, 5]: 0.02%
Comp. B [1, 5]: 0.06%
LVB [1, 5]: 99.83%
Comp. A [1, 6]: 0.02%
Comp. B [1, 6]: 0.01%
LVB [1, 6]: 99.91%
Total Unknown Impurities [1, 6]: 0.06%
Compound: CC(C)(C)NC[C@H](O)c1ccc(O)c(CO)c1 [Example 12, Levalbuterol Hydrochloride]

Compound A ([2]; 1 month, 25° C.): 0.03%
Compound B ([2]; 1 month, 25° C.): 0.02%
LVB ([2]; 1 month, 25° C.): 99.87%
Total Unknown Impurities ([2]; 1 month, 25° C.): 0.08%
Compound A ([2]; 2 months, 25° C.): 0.04%
Compound B ([2]; 2 months, 25° C.): 0.02%
LVB ([2]; 2 months, 25° C.): 99.82%
Total Unknown Impurities ([2]; 2 months, 25° C.): 0.12%
Compound A ([2]; 20 hrs, 40-45° C.): 0.11%
Compound B ([2]; 20 hrs, 40-45° C.): 0.30%
LVB ([2]; 20 hrs, 40-45° C.): 99.30%
Total Unknown Impurities ([2]; 20 hrs, 40-45° C.): 0.29%
Compound A ([2]; 20 hrs, 55-60° C.): 0.23%
Compound B ([2]; 20 hrs, 55-60° C.): 0.45%
LVB ([2]; 20 hrs, 55-60° C.): 98.17%
Total Unknown Impurities ([2]; 20 hrs, 55-60° C.): 1.15%
Compound A ([2]; 32 hrs, 55-60° C.): 0.26%
Compound B ([2]; 32 hrs, 55-60° C.): 0.45%
LVB ([2]; 32 hrs, 55-60° C.): 97.9%
Total Unknown Impurities ([2]; 32 hrs, 55-60° C.): 1.39%
Compound A ([2]; 10 days, 25° C.): 0.02%
Compound B ([2]; 10 days, 25° C.): 0.01%
LVB ([2]; 10 days, 25° C.): 99.88%
Total Unknown Impurities ([2]; 10 days, 25° C.): 0.09%
Compound A ([2]; T = 0, 20° C., MeOH 6700 ppm): 0.028%
Compound B ([2]; T = 0, 20° C., MeOH 6700 ppm): 0.035%
LVB ([2]; T = 0, 20° C., MeOH 6700 ppm): 99.84%
Total Unknown Impurities ([2]; T = 0, 20° C., MeOH 6700 ppm): 0.097%
Compound A ([2]; T = 0, 25° C., MeOH 2090 ppm): 0.02%
Compound B ([2]; T = 0, 25° C., MeOH 2090 ppm): 0.01%
LVB ([2]; T = 0, 25° C., MeOH 2090 ppm): 99.90%
Total Unknown Impurities ([2]; T = 0, 25° C., MeOH 2090 ppm): 0.07%
Sample (appearance) [3, 7]: White solid
Compound: CC(C)(C)NC[C@H](O)c1ccc(O)c(CO)c1 [levalbuterol hydrochloride, (R)-α^1-[[(1,1-dimethylethyl)amino]methyl]-4-hydroxy-1,3-benzenedimethanol hydrochloride]

Comp. C ([1]; 3 months at 40° C. and 75% RH): 0.04%
Comp. A [1, 4]: 0.06%
Comp. B [1, 4]: 0.09%
LVB [1, 4]: 99.75%
Total Unknown Impurities [1, 4]: 0.08%
Comp. C ([1]; 6 months at 40° C. and 75% RH): 0.05%
Comp. A [1, 5]: 0.07%
Comp. B [1, 5]: 0.13%
LVB [1, 5]: 99.72%
Comp. A [1, 6]: 0.01%
Comp. B [1, 6]: 0.02%
LVB [1, 6]: 99.86%
Total Unknown Impurities [1, 6]: 0.11%
Compound: CC(C)(C)NC[C@H](O)c1ccc(O)c(CO)c1 [Example 16, Levalbuterol Hydrochloride]

Compound A [3, 8]: 0.72%
Compound B [3, 8]: 0.26%
Compound C [3, 8]: 0.18%
LVB (levalbuterol hydrochloride) [3, 8]: 97.1%
Sample (appearance) [3, 8]: Pale yellow
Total Unknown Impurities [3, 8]: 1.21%
Compound C ([3]; T = 0, before storage at 70° C.): 0.15%
Compound A [3, 7]: 0.24%
Compound B [3, 7]: 0.18%
LVB (levalbuterol hydrochloride) [3, 7]: 99.4%
Sample (appearance) [3, 7]: White solid^c
Compound: CC(C)(C)NC[C@H](O)c1ccc(O)c(CO)c1 [Example 21, Levalbuterol Hydrochloride]

Comp. A [1, 4]: 0.03%
Comp. B [1, 4]: 0.07%
LVB [1, 4]: 99.85%
Total Unknown Impurities [1, 4]: 0.05%
Total Unknown Impurities ([1]; 6 months at 40° C. and 75% RH): 0.09%
Comp. A [1, 5]: 0.03%
Comp. B [1, 5]: 0.07%
LVB [1, 5]: 98.81%
Comp. A [1, 6]: 0.01%
Comp. B [1, 6]: 0.03%
LVB [1, 6]: 99.87%
Total Unknown Impurities [1, 6]: 0.09%
Compound: CC(C)(C)NC[C@H](O)c1ccc(O)c(CO)c1 [Example 8, Levalbuterol Hydrochloride]
